Measured values reported in patent US20260345596A1, “TREATMENT OF LOCALLY ADVANCED OR METASTATIC UROTHELIAL CARCINOMA WITH ERDAFINITIB” (priority 2023, published 2026).
Entries after “also recorded” stand apart in the source; their conditions may differ.

Columns and labels:
[1] = test system: locally advanced or metastatic urothelial carcinoma with FGFR alterations; experiment: Study BLC3001 (NCT03390504, THOR) Cohort 1: efficacy of erdafitinib versus chemotherapy; assay type: in vivo, human
Experimental: Subjects are assigned to Cohort 1 or Cohort 2 based upon prior treatment with an anti-PD-(L)1 agent. […] Cohort 1 and Cohort 2 are assessed independently.
Each potential subject must satisfy all of the following criteria to be enrolled in the study: • 1. ≥18 years of age (or the legal age of consent in the jurisdiction in which the study is taking place) • 2. […] Minor components (<50% overall) of variant histology such as glandular or squamous differentiation, or evolution to more aggressive phenotypes such as sarcomatoid or micropapillary change are acceptable • 3. Metastatic or surgically unresectable urothelial cancer • 4. Documented progression of disease, defined as any progression that requires a change in treatment, prior to randomization • 5. Prior treatment with an anti-PD-(L)1 agent as monotherapy or as combination therapy; no more than 2 prior lines of systemic treatment. […] These subjects will however still be eligible only for Cohort 1.
Each dose should be taken at approximately the same time each day, with or without food. The study drug is to be taken with approximately 240 mL (8 ounces) of water. The tablets should be swallowed intact and subjects should not attempt to dissolve them in water, tablets must not be broken or chewed. Subjects should avoid consuming grapefruit or Seville oranges due to CYP450 3A4/5 inhibition.
No concomitant treatment is required for these subjects.
Subjects randomized to chemotherapy in Arm 1B (see FIG. 1) receive vinflunine 320 mg/m2 as a 20-minute intravenous infusion once every 3 weeks or docetaxel 75 mg/m2 as a 1-hour intravenous infusion every 3 weeks. Treatment with either agent will be administered until disease progression, intolerable toxicity, withdrawal of consent or decision by the investigator to discontinue treatment.
The primary endpoint is OS. The primary efficacy analysis is based on the Intent-to-Treat (ITT) population that includes all randomized subjects in each cohort. The Kaplan-Meier method is used to estimate the distribution of OS for each treatment group within each cohort. The stratified log-rank test is used to compare survival curves of OS between the 2 treatment arms. The stratification factors to be used in the analysis are as follows: region (North America vs EU vs rest of world), ECOG performance status (0 or 1 vs 2), and disease distribution (presence vs absence of visceral metastases: lung, liver, or bone). Pre-specified strata combining will be implemented when some strata have too few OS events.
The secondary efficacy endpoints are PFS, ORR (achievement of objective response), and Safety. Secondary end points also included DOR, change from baseline in patient reported outcomes (Functional Assessment of Cancer Therapy—Bladder Cancer, Patient-Global Impression of Severity, and the European Quality of Life—5 Dimensions—5 Levels). PFS is analyzed the same as OS. Kaplan-Meier method is used to estimate the distribution of DOR. ORR is analyzed by Cochran-Mantel-Haenszel chi-square test for randomized subjects with measurable disease at baseline. The analyses of the secondary efficacy endpoints include all randomized subjects (ITT subjects) unless otherwise specified. The family-wise type 1 error is strongly controlled at 5% (2-sided) for the secondary efficacy endpoints.
Ophthalmologic examination at baseline included an Amsler grid test, optical coherence tomography scan (OCT), and ophthalmologic evaluation. An Amsler grid test was conducted at every cycle. Repeat OCT was done as clinically indicated based on the Amsler grid test or clinical assessment.
O'Brien-Fleming boundaries were applied, implemented by the Lan-DeMets spending function for a total Type I error of 0.05. […] Stopping for futility was possible if the hazard ratio at the interim analysis exceeded 1.0, considering the totality of the data.
Descriptive subgroup analyses were conducted, but with no adjustment for multiplicity.

clinical = conditions: human, in vivo, po
[2] = test system: cell lines expressing FGFR genetic alterations; experiment: Cell viability of cell lines expressing FGFR genetic alterations; assay type: cell-based; conditions: cell lines with FGFR genetic alterations
rats = experiment: 3-month repeat-dose toxicity study, female reproductive organs; conditions: exposure less than human AUC at maximum recommended dose
bacteria = experiment: Bacterial reverse mutation (Ames) assay
[3] = Protein binding in patients; conditions: human, in vivo
[4] = test system: FGFR phosphorylation and signaling; experiment: FGFR phosphorylation and signaling in cell lines expressing FGFR genetic alterations; assay type: cell-based; conditions: cell lines with FGFR genetic alterations
[5] = Excretion after a single oral dose of radiolabeled erdafitinib; conditions: for dose excreted: human, in vivo, po
QTc interval = experiment: Cardiac electrophysiology: QTc interval in dose escalation and dose expansion study (187 patients); conditions: large effect = ≥20 ms

SMILES: COc1cc(OC)cc(N(CCNC(C)C)c2ccc3ncc(-c4cnn(C)c4)nc3c2)c1 [Erdafitinib, N-(3,5-dimethoxyphenyl)-N′-(1-methylethyl)-N-[3-(1-methyl-1H-pyrazol-4-yl)quinoxalin-6-yl]ethane-1,2-diamine]
- Disease control rate (CR + PR + SD) ([1]; ITT): 112 (82.4%) n (%)
- Progression-free survival (PFS): number of events (%) ([1]; ITT): 101 (74.3%) number (%)
- Overall Survival (OS): number of events (%) ([1]; ITT, 8 mg oral once daily, up-titration to 9 mg, chemotherapy docetaxel or vinflunine): 77 (56.6%) number (%)
- Objective response rate, ORR (CR + PR) ([1]; ITT, RECIST v1.1, investigator): 62 (45.6%) n (%)
- OS events (deaths) ([1]; ITT, at data cut, ~75% information fraction, count): 77
- PFS events ([1]; ITT, at data cut, count): 101
- Not evaluable (NE) ([1]; ITT, best overall response): 10 (7.4%) n (%)
- Progressive disease (PD) ([1]; ITT, best overall response): 14 (10.3%) n (%)
- Complete response, CR (%) ([1]; ITT, best overall response, RECIST v1.1, investigator): 9 (6.6%) n (%)
- Complete response (CR) ([1]; ITT, investigator): 6.6%
- Partial response (PR) ([1]; ITT, investigator): 39.0%
- Patients alive at 6 months ([1]; estimated, (95% CI)): 85% (95% CI, 77 to 90)
- Patients alive at 12 months ([1]; estimated, (95% CI)): 51% (95% CI, 41 to 60)
- Median overall survival (years) ([1]; mUC and FGFR alt after prior anti-PD-(L)1): about 1 year
- Improvement of disease control rate ([1]; versus chemotherapy): about 39%
- Objective response outcome in words ([1]; versus chemotherapy): approximately a four-fold higher probability of achieving an objective response; also recorded: The superiority of Erdafitinib relative to chemotherapy, in terms of ORR, was established; also recorded: significantly greater for Erdafitinib, with similar DOR; also recorded: generally consistent in the subgroups evaluated
- Overall survival outcome in words ([1]; versus chemotherapy): The superiority of Erdafitinib relative to chemotherapy, in terms of OS, was established; also recorded: generally consistent across clinically meaningful subgroups including age group, FGFR alteration type, baseline ECOG PS, presence/absence of visceral metastases and PD-L1 status; also recorded: significantly prolonged or extended OS compared to chemotherapy; also recorded: consistent across clinically relevant subgroups; also recorded: significantly longer with erdafitinib versus chemotherapy; also recorded: significantly prolonged median overall survival compared with chemotherapy
- Progression-free survival outcome in words ([1]; versus chemotherapy): The superiority of Erdafitinib relative to chemotherapy, in terms of PFS, was established; also recorded: significantly prolonged PFS; also recorded: generally consistent in the subgroups evaluated
- Confirmed complete response (CR) ([1]; ≥2 consecutive assessments): 5.1%
- Confirmed partial response (PR) ([1]; ≥2 consecutive assessments): 30.1%
- CL/F (clinical): 6.03 mL/min
- Vd/F (clinical): 29 L
- Dose proportionality of exposure (Cmax and AUC) (0.5 to 12 mg, single and repeat once daily dosing): increased proportionally across the dose range of 0.5 to 12 mg
- Effect of food on exposure (high-fat and high-calorie meal): No clinically meaningful differences in erdafitinib exposure
- Time to steady state (once daily dosing): 2 weeks
- Effect of age, sex, race, body weight, hepatic or renal impairment on exposure (specific populations): No clinically meaningful effects on erdafitinib exposure were observed based on age (21-92 years), sex, race (White, Hispanic or Asian), body weight (36-166 kg), mild (Child-Pugh A) or moderate (Child-Pugh B) hepatic impairment, or mild to moderate renal impairment (eGFR 30 to 89 mL/min/1.73 m^2)
- Cell viability [2]: decreased cell viability in cell lines expressing FGFR genetic alterations, including point mutations, amplifications, and fusions
- Effects on female reproductive organs (rats): showed effects on female reproductive organs (necrosis of the ovarian corpora lutea)
- Solubility in organic solvents (Solubility; organic solvents): practically insoluble, or insoluble to freely soluble in organic solvents
- Solubility across the pH range of 1 to 7.4 (Solubility; pH 1 to 7.4): adequate solubility across the pH range of 1 to 7.4
- Solubility in aqueous media (Solubility; wide range of pH values): slightly soluble to practically insoluble, or insoluble in aqueous media over a wide range of pH values
- Mutagenicity (Ames) (bacteria): not mutagenic
- fraction unbound [3]: 0.003
- FGFR phosphorylation and signaling [4]: inhibited FGFR phosphorylation and signaling
- Dose recovered in feces [5]: approximately 69%
- Dose recovered in urine [5]: 19%
- dose excreted ([5]; Dose recovered in feces as unchanged): 19%
- dose excreted ([5]; Dose recovered in urine as unchanged): 13%
- Effect on QTc interval (QTc interval): no large effect (i.e., ≥20 ms) on the QTc interval
